US7893055B2, “HIV integrase inhibitors” (priority 2006, dated 2011)

What follows are molecules tested against T1, HIV-integrase (Human immunodeficiency virus type 1 group M subtype B, UniProt P12497) (assay: HIV-Integrase Inhibition Activity (SPA strand transfer assay)). Settings: recombinant integrase, SPA beads, P33 labeled target DNA; read-out: Activity (IC50 class, HIV-integrase inhibition).
T1 construct: Recombinant integrase (0.26 ng) was incubated with the beads
Type: biochemical
Method: HIV-Integrase InhibitionActivity. To evaluate in-vitro activity against HIV-integrase, 5 pmole of biotin labeled substrate DNA was bound to 100 μg of Streptavidin coated PVT SPA beads (Amersham Pharmacia Biotech). Recombinant integrase (0.26 ng) was incubated with the beads for 90 min at 37° C. Unbound enzyme was removed by washing the complex followed by addition of inhibitors and 0.1 fmol of P33 labeled target DNA. The reaction was stopped by adding EDTA to a final concentration of 10 mM. Samples were counted in TopCountNXT (Packard) and the CPM was used as a measure of integration. The reaction condition was as described in A. Engelman and R. Craigie, J. Virol. 69, 5908-5911 (1995). The sequences of substrate and target DNA were described in Nucleic Acid Research 22, 1121-1122 (1994). Activity equal to A refers to a compound having IC50=0.002 to 0.10 μM while B and C denote compounds having IC50=0.1 to 1.0 μM and IC50≧1.0 μM respectively.
Work on `CC1(C)OCCn2c1nc(C(=O)NCc1nc3ccccc3s1)c(O)c2=O` [Example 92, N-(1,3-Benzothiazol-2-ylmethyl)-3-hydroxy-9,9-dimethyl-4-oxo-4,6,7,9-tetrahydropyrimido[2,1-c][1,4]oxazine-2-carboxamide] yielded an IC50 of 2 to 100 nM.
`CC1=CC=C(CNC(=O)c2nc3n(c(=O)c2O)CCOC3(C)C)S1(=O)=O` [Example 35, Pyrimido[2,1-c][1,4]oxazine-2-carboxamide, 4,6,7,9-tetrahydro-3-hydroxy-9,9-dimethyl-N-[(5-methyl-1,1-dioxido-2-thienyl)methyl]-4-oxo-] was tested, and the IC50 was ≥ 1000 nM.
`Cc1nnc(CNC(=O)c2nc3n(c(=O)c2O)CCOC3(C)C)o1` [Example 86, 3-Hydroxy-9,9-dimethyl-N-((5-methyl-1,3,4-oxadiazol-2-yl)methyl)-4-oxo-4,6,7,9-tetrahydropyrimido[2,1-c][1,4]oxazine-2-carboxamide] was tested, and the IC50 was ≥ 1000 nM.
In the case of `Cc1cc(CNC(=O)c2nc3n(c(=O)c2O)CCOC3(C)C)nn1C(C)(C)C` [Example 10, Pyrimido[2,1-c][1,4]oxazine-2-carboxamide, N-[[1-(1,1-dimethylethyl)-5-methyl-1H-pyrazol-3-yl]methyl]-4,6,7,9-tetrahydro-3-hydroxy-9,9-dimethyl-4-oxo-], the IC50 is reported as 2 to 100 nM.
Molecule `CNC(=O)c1ccc(CNC(=O)c2nc3n(c(=O)c2O)CCOC3(C)C)o1` [Example 16, 3-Hydroxy-9,9-dimethyl-N-((5-(methylcarbamoyl)-2-furyl)methyl)-4-oxo-4,6,7,9-tetrahydropyrimido[2,1-c][1,4]oxazine-2-carboxamider] has an IC50 of 100 to 1000 nM.
`Cn1nc(CNC(=O)c2nc3n(c(=O)c2O)CCOC3(C)C)c2ccccc21` [Example 13, Pyrimido[2,1-c][1,4]oxazine-2-carboxamide, 4,6,7,9-tetrahydro-3-hydroxy-9,9-dimethyl-N-[(1-methyl-1H-indazol-3-yl)methyl]-4-oxo-] showed an IC50 of 2 to 100 nM.
With `Cc1cccc(-n2cc(CNC(=O)c3nc4n(c(=O)c3O)CCOC4(C)C)cn2)c1` [Example 91, 3-Hydroxy-9,9-dimethyl-N-((1-(3-methylphenyl)-1H-pyrazol-4-yl)methyl)-4-oxo-4,6,7,9-tetrahydropyrimido[2,1-c][1,4]oxazine-2-carboxamide] the IC50 was ≥ 1000 nM.
For `CC1(C)OCCn2c1nc(C(=O)NCc1cccs1)c(O)c2=O` [Example 28, Pyrimido[2,1-c][1,4]oxazine-2-carboxamide, 4,6,7,9-tetrahydro-3-hydroxy-9,9-dimethyl-4-oxo-N-(2-thienylmethyl)-], the IC50 was 2 to 100 nM.
With `Cc1cc(CNC(=O)c2nc3n(c(=O)c2O)CCOC3(C)C)nn1C(C)C` [Example 19, Pyrimido[2,1-c][1,4]oxazine-2-carboxamide, 4,6,7,9-tetrahydro-3-hydroxy-9,9-dimethyl-N-[[5-methyl-1-(1-methylethyl)-1H-pyrazol-3-yl]methyl]-4-oxo-] the IC50 was 2 to 100 nM.
For `Cc1cc(C)n2nc(CNC(=O)c3nc4n(c(=O)c3O)CCOC4(C)C)nc2n1` [Example 21, Pyrimido[2,1-c][1,4]oxazine-2-carboxamide, N-[(5,7-dimethyl[1,2,4]triazolo[1,5-a]pyrimidin-2-yl)methyl]-4,6,7,9-tetrahydro-3-hydroxy-9,9-dimethyl-4-oxo-], the IC50 was ≥ 1000 nM.
In the case of `CC1(C)OCCn2c1nc(C(=O)NCc1cc(C(=O)O)co1)c(O)c2=O` [Example 75, 3-Furancarboxylic acid, 5-[[[(4,6,7,9-tetrahydro-3-hydroxy-9,9-dimethyl-4-oxopyrimido[2,1-c][1,4]oxazin-2-yl)carbonyl]amino]methyl]], the IC50 is reported as ≥ 1000 nM.
In the case of `CC1(C)OCCn2c1nc(C(=O)NCc1nccs1)c(O)c2=O` [Example 5, Pyrimido[2,1-c][1,4]oxazine-2-carboxamide, 4,6,7,9-tetrahydro-3-hydroxy-9,9-dimethyl-4-oxo-N-(2-thiazolylmethyl)-], the IC50 is reported as ≥ 1000 nM.
Molecule `Cc1cc(CNC(=O)c2nc3n(c(=O)c2O)CCOC3(C)C)cs1` [Example 32, Pyrimido[2,1-c][1,4]oxazine-2-carboxamide, 4,6,7,9-tetrahydro-3-hydroxy-9,9-dimethyl-N-[(5-methyl-3-thienyl)methyl]-4-oxo-] has an IC50 of 2 to 100 nM.
“Pyrimido[2,1-c][1,4]oxazine-2- carboxamide, 4,6,7,9-tetrahydro-3- hydroxy-N-[2-(1H-indol-3- yl)ethyl]-9,9-dimethyl-4-oxo- [Example 57]” showed an IC50 of 100 to 1000 nM.
“Pyrimido[2,1-c][1,4]oxazine-2- carboxamide, N-[(1-ethyl-1H- pyrazol-5-yl)methyl]-4,6,7,9- tetrahydro-3-hydroxy-9,9- dimethyl-4-oxo- [Example 68]” was tested, and the IC50 was ≥ 1000 nM.
Work on `Cc1cc(CNC(=O)c2nc3n(c(=O)c2O)CCOC3(C)C)sc1C` [Example 31, N-((4,5-dimethyl-2-thienyl)methyl)-3-hydroxy-9,9-dimethyl-4-oxo-4,6,7,9-tetrahydropyrimido[2,1-c][1,4]oxazine-2-carboxamide] yielded an IC50 of 2 to 100 nM.
“Pyrimido[2,1-c][1,4]oxazine-2- carboxamide, N-[(1-ethyl-5- methyl-1H-pyrazol-4-yl)methyl]- 4,6,7,9-tetrahydro-3-hydroxy-9,9- dimethyl-4-oxo- [Example 64]” gave an IC50 of 100 to 1000 nM.
With “Pyrimido[2,1-c][1,4]oxazine-2- carboxamide, 4,6,7,9-tetrahydro-3- hydroxy-9,9-dimethyl-N-[(5- methyl-2-phenyl-2H-1,2,3-triazol- 4-yl)methy]-4-oxo- [Example 49]” the IC50 was ≥ 1000 nM.
`CSc1ccc(CNC(=O)c2nc3n(c(=O)c2O)CCOC3(C)C)o1` [Example 87, 3-Hydroxy-9,9-dimethyl-N-((5-(methylthio)furan-2-yl)methyl)-4-oxo-4,6,7,9-tetrahydropyrimido[2,1-c][1,4]oxazine-2-carboxamide] gave an IC50 of 2 to 100 nM.
For “2-Thiopheneacetic acid, 5- [[[(4,6,7,9-tetrahydro-3-hydroxy- 9,9-dimethyl-4-oxopyrimido[2,1- c][1,4]oxazin-2- yl)carbonyl]amino]methy]- [Example 55]”, the IC50 was 100 to 1000 nM.
`Cc1cc(C#N)c(CNC(=O)c2nc3n(c(=O)c2O)CCOC3(C)C)s1` [Example 34, Pyrimido[2,1-c][1,4]oxazine-2-carboxamide, N-[(3-cyano-5-methyl-2-thienyl)methyl]-4,6,7,9-tetrahydro-3-hydroxy-9,9-dimethyl-4-oxo-] gave an IC50 of 2 to 100 nM.
With “Pyrimido[2,1-c][1,4]oxazine-2- carboxamide, 4,6,7,9-tetrahydro-3- hydroxy-9,9-dimethyl-N-[(5- methyl-3-phenyl-4- isoxazolyl)methy]-4-oxo- [Example 43]” the IC50 was ≥ 1000 nM.
With `Cn1cc(CN(Cc2cn(C)nn2)C(=O)c2nc3n(c(=O)c2O)CCOC3(C)C)nn1` [Example 26, Pyrimido[2,1-c][1,4]oxazine-2-carboxamide, 4,6,7,9-tetrahydro-3-hydroxy-9,9-dimethyl-N,N-bis[(1-methyl-1H-1,2,3-triazol-4-yl)methyl]-4-oxo-] the IC50 was ≥ 1000 nM.
In the case of “Pyrimido[2,1-c][1,4]oxazine-2- carboxamide, 4,6,7,9-tetrahydro-3- hydroxy-9,9-dimethyl-4-oxo-N- [(2,3,6,7-tetrahydro-1,3,7- trimethyl-2,6-dioxo-1H-purin-8- yl)methyl]- [Example 60]”, the IC50 is reported as ≥ 1000 nM.
With `CC1(C)OCCn2c1nc(C(=O)NCc1csc(-c3ccccc3)n1)c(O)c2=O` [Example 3, Pyrimido[2,1-c][1,4]oxazine-2-carboxamide, 4,6,7,9-tetrahydro-3-hydroxy-9,9-dimethyl-4-oxo-N-[(2-phenyl-4-thiazolyl)methyl]-] the IC50 was 100 to 1000 nM.
`CC1(C)OCCn2c1nc(C(=O)NCc1ccsc1)c(O)c2=O` [Example 36, Pyrimido[2,1-c][1,4]oxazine-2-carboxamide, 4,6,7,9-tetrahydro-3-hydroxy-9,9-dimethyl-4-oxo-N-(3-thienylmethyl)-] was tested, and the IC50 was 2 to 100 nM.
`Cc1nc(CNC(=O)c2nc3n(c(=O)c2O)CCOC3(C)C)cs1` [Example 7, Pyrimido[2,1-c][1,4]oxazine-2-carboxamide, 4,6,7,9-tetrahydro-3-hydroxy-9,9-dimethyl-N-[(2-methyl-4-thiazolyl)methyl]-4-oxo-] gave an IC50 of 100 to 1000 nM.
`CCn1cc(CNC(=O)c2nc3n(c(=O)c2O)CCOC3(C)C)cn1` [Example 65, Pyrimido[2,1-c][1,4]oxazine-2-carboxamide, N-[(1-ethyl-1H-pyrazol-4-yl)methyl]-4,6,7,9-tetrahydro-3-hydroxy-9,9-dimethyl-4-oxo-] was tested, and the IC50 was 100 to 1000 nM.
In the case of `COC(=O)n1nc(CNC(=O)c2nc3n(c(=O)c2O)CCOC3(C)C)c2ccccc21` [Example 79, Methyl 3-((((3-hydroxy-9,9-dimethyl-4-oxo-4,6,7,9-tetrahydropyrimido[2,1-c][1,4]oxazin-2-yl)carbonyl)amino)methyl)-1H-indazole-1-carboxylate], the IC50 is reported as 2 to 100 nM.
`CC1(C)OCCn2c1nc(C(=O)NCc1nn(S(C)(=O)=O)c3ccccc13)c(O)c2=O` [Example 78, 3-Hydroxy-9,9-dimethyl-N-((1-(methylsulfonyl)-1H-indazol-3-yl)methyl)-4-oxo-4,6,7,9-tetrahydropyrimido[2,1-c][1,4]oxazine-2-carboxamide] was tested, and the IC50 was 2 to 100 nM.
With `CC1(C)OCCn2c1nc(C(=O)NCc1nc3c(s1)CCCCC3)c(O)c2=O` [Example 90, 3-Hydroxy-9,9-dimethyl-4-oxo-N-(5,6,7,8-tetrahydro-4H-cyclohepta[d][1,3]thiazol-2-ylmethyl)-4,6,7,9-tetrahydropyrimido[2,1-c][1,4]oxazine-2-carboxamide] the IC50 was 2 to 100 nM.
